Experiments:
Assay in all cases: pIC50, kinobeads binding competition
UniProt Q9HCP0 = molecular target: UniProt Q9HCP0
In short: (§1)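 pIC50 was obtained by fitting fold changes against vehicle to logistic dose-response curves with the R drc package, using biological duplicates. Kinobeads-bound proteins were digested and measured by TMT10 LC-MS/MS. Before this, either living Jurkat cells received nine compound concentrations (top 30 μM, 1:4 steps) for 60 min at 37 °C prior to lysis, or Jurkat lysate or a 1:1:1:1 HEK293/K-562/HepG2/placenta lysate mix received nine concentrations (top 30 μM, 1:5 steps) for 60 min at 4 °C.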

PAK2 = PAK2 (UniProt Q13177)
In short: as §1

EPHA1 = molecular target: T1, EPHA1 (UniProt P21709); conditions: cell material: Lysate mix
T1 sequence (whole entry): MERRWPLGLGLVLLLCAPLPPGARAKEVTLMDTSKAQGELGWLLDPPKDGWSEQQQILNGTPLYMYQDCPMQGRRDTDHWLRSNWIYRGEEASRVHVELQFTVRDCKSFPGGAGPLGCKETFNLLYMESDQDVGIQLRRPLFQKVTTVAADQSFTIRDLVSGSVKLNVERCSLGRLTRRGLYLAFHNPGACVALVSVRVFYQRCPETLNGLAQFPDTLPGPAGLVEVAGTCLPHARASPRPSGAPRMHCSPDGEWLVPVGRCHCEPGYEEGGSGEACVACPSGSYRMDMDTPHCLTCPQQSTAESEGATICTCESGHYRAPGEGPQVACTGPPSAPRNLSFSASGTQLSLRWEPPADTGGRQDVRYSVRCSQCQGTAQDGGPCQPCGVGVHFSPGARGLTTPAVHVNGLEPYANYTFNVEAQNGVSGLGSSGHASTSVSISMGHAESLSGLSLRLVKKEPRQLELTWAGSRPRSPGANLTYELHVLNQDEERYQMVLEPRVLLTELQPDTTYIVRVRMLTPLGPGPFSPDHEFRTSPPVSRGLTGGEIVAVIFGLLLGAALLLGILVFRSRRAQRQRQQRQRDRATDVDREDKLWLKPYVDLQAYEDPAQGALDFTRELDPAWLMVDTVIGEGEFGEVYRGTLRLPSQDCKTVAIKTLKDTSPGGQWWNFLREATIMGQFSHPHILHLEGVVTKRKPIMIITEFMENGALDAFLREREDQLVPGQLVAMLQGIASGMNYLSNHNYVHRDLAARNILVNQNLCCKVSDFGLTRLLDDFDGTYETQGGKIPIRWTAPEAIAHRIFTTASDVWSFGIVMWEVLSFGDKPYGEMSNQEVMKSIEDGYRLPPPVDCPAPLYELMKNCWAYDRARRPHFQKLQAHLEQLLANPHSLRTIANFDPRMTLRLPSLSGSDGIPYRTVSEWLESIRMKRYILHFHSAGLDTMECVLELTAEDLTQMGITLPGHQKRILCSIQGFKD
In short: as §1

UniProt Q9UQB9 = molecular target: T2, UniProt Q9UQB9
T2 sequence (whole entry): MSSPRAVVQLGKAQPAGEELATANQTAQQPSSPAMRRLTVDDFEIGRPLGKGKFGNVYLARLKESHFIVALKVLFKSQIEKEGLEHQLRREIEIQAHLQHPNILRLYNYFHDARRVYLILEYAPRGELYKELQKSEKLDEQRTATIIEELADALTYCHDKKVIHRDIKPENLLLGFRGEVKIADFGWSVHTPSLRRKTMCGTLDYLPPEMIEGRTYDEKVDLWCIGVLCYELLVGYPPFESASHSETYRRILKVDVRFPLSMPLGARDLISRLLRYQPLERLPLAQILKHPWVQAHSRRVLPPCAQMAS
In short: as §1

ADCK1 = molecular target: T3, ADCK1 (UniProt Q86TW2); conditions: cell material: Lysate mix
T3 sequence (whole entry): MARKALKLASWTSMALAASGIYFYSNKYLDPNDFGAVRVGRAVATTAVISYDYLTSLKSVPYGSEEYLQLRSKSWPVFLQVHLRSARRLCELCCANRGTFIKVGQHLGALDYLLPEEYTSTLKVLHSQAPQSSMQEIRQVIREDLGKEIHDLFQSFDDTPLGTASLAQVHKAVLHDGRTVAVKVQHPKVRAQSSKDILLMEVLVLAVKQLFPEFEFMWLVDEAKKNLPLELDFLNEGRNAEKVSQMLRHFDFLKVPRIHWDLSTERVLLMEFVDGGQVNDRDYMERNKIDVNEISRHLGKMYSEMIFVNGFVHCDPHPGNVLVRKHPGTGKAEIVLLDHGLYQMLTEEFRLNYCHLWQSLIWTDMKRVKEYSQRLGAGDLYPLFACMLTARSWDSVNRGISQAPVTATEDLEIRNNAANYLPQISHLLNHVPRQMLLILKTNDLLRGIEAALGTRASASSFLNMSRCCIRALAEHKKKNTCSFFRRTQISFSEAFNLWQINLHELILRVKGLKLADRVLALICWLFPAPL
In short: as §1

Chain of UniProt Q9HCP0 (Q9HCP0 whole entry, looked up): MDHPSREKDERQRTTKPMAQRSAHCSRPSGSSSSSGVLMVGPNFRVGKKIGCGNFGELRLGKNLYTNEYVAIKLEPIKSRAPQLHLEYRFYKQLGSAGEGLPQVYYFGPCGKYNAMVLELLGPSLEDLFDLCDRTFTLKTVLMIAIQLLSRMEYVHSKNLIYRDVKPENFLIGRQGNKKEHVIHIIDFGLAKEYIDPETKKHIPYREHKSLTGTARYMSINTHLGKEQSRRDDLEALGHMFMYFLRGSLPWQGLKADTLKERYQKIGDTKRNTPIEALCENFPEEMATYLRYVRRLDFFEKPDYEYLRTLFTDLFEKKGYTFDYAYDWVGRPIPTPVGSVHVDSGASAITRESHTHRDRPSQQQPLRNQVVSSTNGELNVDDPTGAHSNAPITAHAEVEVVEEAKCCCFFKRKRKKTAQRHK
Chain of PAK2 (Q13177 whole entry): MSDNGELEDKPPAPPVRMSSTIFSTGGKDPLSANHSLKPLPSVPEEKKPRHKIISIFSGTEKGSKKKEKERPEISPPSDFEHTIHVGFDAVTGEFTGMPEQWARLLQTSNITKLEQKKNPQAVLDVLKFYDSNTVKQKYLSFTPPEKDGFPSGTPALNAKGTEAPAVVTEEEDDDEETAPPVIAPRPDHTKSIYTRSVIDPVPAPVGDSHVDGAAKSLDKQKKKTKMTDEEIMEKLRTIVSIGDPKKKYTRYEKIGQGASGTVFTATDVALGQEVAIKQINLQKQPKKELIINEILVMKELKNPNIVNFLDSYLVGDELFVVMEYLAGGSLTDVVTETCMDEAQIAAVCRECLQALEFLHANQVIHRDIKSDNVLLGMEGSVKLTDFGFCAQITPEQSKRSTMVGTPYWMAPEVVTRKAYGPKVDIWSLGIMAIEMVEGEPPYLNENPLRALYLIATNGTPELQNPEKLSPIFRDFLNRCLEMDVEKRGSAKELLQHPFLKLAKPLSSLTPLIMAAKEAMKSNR

pIC50 (UniProt Q9HCP0; cell material: Lysate mix) | pIC50 (PAK2; cell material: Lysate mix) | pIC50 (EPHA1) | pIC50 (UniProt Q9UQB9; cell material: Lysate mix) | pIC50 (ADCK1) | Structure (SMILES) | pIC50 (UniProt Q9HCP0; cell material: Jurkat lysate) | pIC50 (PAK2; cell material: Jurkat cells) | pIC50 (UniProt Q9HCP0; cell material: Jurkat cells) | pIC50 (PAK2; cell material: Jurkat lysate) | pIC50 (UniProt Q9UQB9; cell material: Jurkat lysate)
< 4.52 | < 4.52 | < 4.52 | 4.7 | < 4.52 | Cc1cc(Nc2cc(C(=O)NCCNC(=O)OC3CC/C=C/CCC3)nc(N3CCN(Cc4ccc(S(=O)(=O)F)cc4)CC3)n2)n[nH]1 (configuration not stated) |  |  |  |  | 
< 4.52 |  | < 4.52 |  | < 4.52 | C#CCNC(=O)c1cc(Nc2cc(C)[nH]n2)nc(N2CCN(Cc3ccc(S(=O)(=O)F)cc3)CC2)n1 |  |  |  |  | 
< 4.52 |  | < 4.52 | 4.88 | < 4.52 | O=C(NCCNC(=O)c1cc(Nc2cc(C3CC3)[nH]n2)nc(N2CCN(Cc3ccc(S(=O)(=O)F)cc3)CC2)n1)OC1CC/C=C/CCC1 (configuration not stated) | < 4.52 | < 4.52 |  |  | 
< 4.52 |  | < 4.52 | 5.64 | < 4.52 | CCNC(=O)c1cc(Nc2cc(C)[nH]n2)nc(N2CCN(Cc3ccc(S(=O)(=O)F)cc3)CC2)n1 |  |  |  |  | 
 |  |  | 5.26 |  | CCNC(=O)c1cc(Nc2cc(C3CC3)[nH]n2)nc(N2CCN(Cc3ccc(S(=O)(=O)F)cc3)CC2)n1 |  |  |  |  | 

Structure (SMILES) | pIC50 (UniProt Q9HCP0; cell material: Lysate mix) | pIC50 (PAK2; cell material: Lysate mix) | pIC50 (EPHA1) | pIC50 (UniProt Q9UQB9; cell material: Lysate mix) | pIC50 (ADCK1) | pIC50 (UniProt Q9HCP0; cell material: Jurkat lysate) | pIC50 (PAK2; cell material: Jurkat cells) | pIC50 (UniProt Q9HCP0; cell material: Jurkat cells) | pIC50 (PAK2; cell material: Jurkat lysate) | pIC50 (UniProt Q9UQB9; cell material: Jurkat lysate)
C#CCNC(=O)c1cc(Nc2cc(C3CC3)[nH]n2)nc(N2CCN(Cc3ccc(S(=O)(=O)F)cc3)CC2)n1 |  |  | 4.66 | 5.81 | < 4.52 | < 4.52 | < 4.52 | 5.12 | < 4.52 | 5.48
